Reference: patent US8969332B2, “Aryloxy dihalopropenyl ether compounds and uses thereof” (Sinochem Corporation, priority 2011, dated 2015)

System: beet armyworm
Assay: Field trial against beet armyworm on cabbage
Format: in vivo, Laphygma exigua
Procedure: The trial was carried out in rain shelter area of experimental field of Wuhan vegetable research institute, the test crop is cabbage (variety: Jingfeng NO. 1). The dosage of the invention compound 1 (Example 11, 10% EC, same as below) are 75, 105, 150 g a.i./hm^2. and the comparative agent pyridalyl (10% EC, commercially available, same as below) is 105 g a.i./hm^2. The agent was applied on 9 Oct. 2011. The application tool is Linong 16HD-400 type backpack spray. Evenly spraying to whole cabbage which is in rosette stage was conducted. Beet armyworm is mainly larvae. The plot area is 25 m^2 and 4 replicates and randomized block arrangement were set. The amount of spray liquid is 750 L/hm^2. It was sunny and there was no wind, with the highest temperature of 28° C. and the lowest of 15° C. on the day of the application. Chosen 10 plants from each plot and scored the larvae at different instars at fixing time. The base number was investigated before treatment. The number of living larvae was counted after 1 day, 3 days, 7 days and 14 days respectively after application and control efficacy was calculated.
Calculation Method: Decrease rate of insects (%)=(the number of insects before application−the number of insects after application) the number of insects before application×100 Control efficacy (%)=(decrease rate of insects in treated area decrease rate of insects in blank comparative area)/(100−decrease rate of insects in blank comparative area)×100

FC(F)(F)c1ccc(Oc2ccc(OCCCOc3c(Cl)cc(OCC=C(Cl)Cl)cc3Cl)cc2)nc1 [Compound 1]
Control efficiency (%) (75 g a.i./hm^2, 10% EC, 1 day after treatment): 63.18%
Control efficiency (%) (75 g a.i./hm^2, 10% EC, 3 days after treatment): 86.14%
Control efficiency (%) (75 g a.i./hm^2, 10% EC, 7 days after treatment): 80.51%
Control efficiency (%) (75 g a.i./hm^2, 10% EC, 14 days after treatment): 73.51%
Control efficiency (%) (105 g a.i./hm^2, 10% EC, 1 day after treatment): 69.20%
Control efficiency (%) (105 g a.i./hm^2, 10% EC, 3 days after treatment): 92.30%
Control efficiency (%) (105 g a.i./hm^2, 10% EC, 7 days after treatment): 86.19%
Control efficiency (%) (105 g a.i./hm^2, 10% EC, 14 days after treatment): 83.69%
Control efficiency (%) (150 g a.i./hm^2, 10% EC, 1 day after treatment): 71.17%
Control efficiency (%) (150 g a.i./hm^2, 10% EC, 3 days after treatment): 94.09%
Control efficiency (%) (150 g a.i./hm^2, 10% EC, 7 days after treatment): 90.45%
Control efficiency (%) (150 g a.i./hm^2, 10% EC, 14 days after treatment): 88.42%
